In patent US10653691B2, “Method of promoting remyelination” (Case Western Reserve University, priority 2013, dated 2020):

What was measured:
[1] = tested on: ERK1/2; test: Western blot of ERK1/2 phosphorylation in OPCs; type: cell-based, mouse; settings: for induction of ERK1/2 phosphorylation in OPCs: OPCs treated for 1 h
Method: EpiSC-derived OPCs were seeded into poly-Lornithine/laminin coated six-well plates and allowed to attach for 2 h in DMEM/F12 without additional factors. Cells were treated with indicated inhibitors or DMSO for 1 h-SCH772984 (ChemieTek, […]), SB590885 (Tocris, 10 nM), LY294002 (Tocris, 10 μM), and PD0325901 (Stemgent, 1 μM). Cells were then stimulated with drug or FGF2 (R&DSystems; 20 ng ml^−1) for 1 h and then lysed in 200 μL RIPA buffer (0.15 M NaCl, 0.05M Tris, pH=8.0, 1 mM EDTA, 1% Triton X-100, 0.1% SDS, 10% glycerol, HALT protease and phosphatase inhibitor (Thermo Fisher) added just before use) and incubated on ice for 20 min. Lysates were centrifuged at 4° C. and supernatant collected. Protein concentrations were determined by Pierce BCA protein assay kit (Thermo Fisher). Equal amounts of protein were resolved in a reduced manner on NuPAGE 4-12% Bis-Tris gels (Life Technologies) and transferred onto PVDF membranes (Life Technologies). Blots were blocked in either 5% BSA (phosphoprotein) or 5% milk (non phosphoprotein). Primary antibodies were all from the same vendor (Cell Signaling) and included phospho-Erk1/2 (4370S, clone D13.14.4E; 1:2,000), ERK1/2 (9107S, clone 3A7; 1:2,000), phospho-glucocorticoid receptor (4161S; 1:1,000), and glucocorticoid receptor (12041, clone D6H2L; 1:1,000) followed by incubation with HRP-conjugated secondary antibodies and chemiluminescent enhancement by West Pico substrate (Thermo Fisher).

[2] = tested on: mouse OPCs; test: OPC differentiation into MBP+ oligodendrocytes; type: cell-based; settings: 72 h, seven doses 0.01-6.7 μM
Method: EpiSC-derived OPCs were seeded onto poly-D-lysine 96-well Viewplate or CellCarrier plates (PerkinElmer) coated with laminin (Sigma, L2020; 10 μgml^−1) using electronic multichannel pipetors. For the primary screen, 30,000 cells were seeded per well in screening medium (DMEM/F12 supplemented with N2 (R&D Systems), B-27 (Life Technologies), neurotrophin 3 (R&D Systems; 10 ng ml^−1), cAMP (Sigma; 50 μM), IGF-1 (R&D Systems; 100 ng ml^−1), noggin (R&D Systems; 100 ngml^−1)) and allowed to attach for 2 h before addition of drug. NIH Clinical Collection I and II drugs were added to assay plates with 0.1 ml pin replicators (Molecular Devices, Genetix; X5051), resulting in a final primary screening concentration of 5 μM. Thyroid-hormone-positive controls and DMSO vehicle controls were included in each assay plate. Cells were incubated under standard conditions (37° C., 5% CO2) for 3 days and fixed with 4% paraformaldehyde (PFA) in phosphate buffered saline (PBS). Fixed plates were permeabilized with 0.1% Triton X-100 and blocked with 10% donkey serum (v/v) in PBS for 2 h. Cells were labelled with MBP antibodies (Abcam, ab7349; 1:100) for 1 h at room temperature (˜22° C.) followed by detection with Alexa Fluorconjugated secondary antibodies (1:500) for 45 min. Nuclei were visualized by DAPI staining (Sigma; 1 μgml^−). All plates for the primary screen were processed and analyzed simultaneously to eliminate variability.
For the 5 μM in vitro screen, stained plates were imaged on the Opera confocal imaging system (PerkinElmer) and a set of 24×10 fields were collected from each well, resulting in an average of 10,000 cells being scored per well. For the dose-response (6.7 μM, 5 μM, 3.3 μM, 1.7 μM, 666 nM, 500 nM, and 333 nM) in vitro assays, plates were imaged on the Operetta High Content Imaging and Analysis system (PerkinElmer) and a set of 14×20 fields captured from each well resulting in an average of 3,300 cells being scored per well. […] Each traced nucleus region was then expanded by 50% and cross-referenced with the mature myelin protein (MBP or PLP1) stain to identify oligodendrocyte nuclei, and from this the percentage of oligodendrocytes was calculated. Processes emanating from oligodendrocyte nuclei were identified using the CSIRO2 analysis module within a custom Acapella script. Maximum mean process length (denoted ‘process length’) and mean process intensity (denoted ‘process intensity’) were generated on a per well basis. For the 5 μM in vitro screen, values were calculated and normalized to 100 for thyroid hormone (positive control)-treated wells and to 0 for DMSO(vehicle)-treated wells, on a per plate basis.

[3] = tested on: mouse epiblast stem cell (EpiSC)-derived OPCs; test: Primary in vitro phenotypic screen of OPCs (MBP process length and intensity, high content imaging); type: cell-based; settings: 5 μM, 72 h, 727 drugs
Method: For the primary screen, OPCs were treated with vehicle alone (0.05% (v/v)DMSO) as a negative control, thyroid hormone (a known OPC differentiation inducer) as a positive control, or drug dissolved in DMSO at a concentration of 5 μM. After 72 h, cells were fixed and labeled with antibodies to myelin basic protein (MBP) and the length and intensity of MBP labeled oligodendrocyte processes measured (FIG. 1A). These features were reliable indicators of alteration in cellular phenotype, as indicated by consistency and high signal to background ratio of positive and vehicle controls across all screening plates (FIG. 5D-G). […] On the basis of this analysis, we identified the 22 drugs that enhanced oligodendrocyte formation greater than five standard deviations above DMSO treatment and outperformed thyroid hormone in the measured parameters (FIG. 1B).
EpiSC-derived OPCs were seeded onto poly-D-lysine 96-well Viewplate or CellCarrier plates (PerkinElmer) coated with laminin (Sigma, L2020; 10 μgml^−1) using electronic multichannel pipetors. […] All plates for the primary screen were processed and analyzed simultaneously to eliminate variability.
For the 5 μM in vitro screen, stained plates were imaged on the Opera confocal imaging system (PerkinElmer) and a set of 24×10 fields were collected from each well, resulting in an average of 10,000 cells being scored per well. […]

[4] = tested on: MOG35-55 EAE mouse model; test: MOG35-55 chronic progressive EAE model
Method: Immunohistochemistry was performed as previously described. In short, tissue sections or whole slices were washed three times in PBS, blocked in PBS containing Triton X-100 (0.1%) and normal donkey serum (NDS, 2% for sections and 10% for cerebellar slices) and incubated with primary antibody overnight. For MBP immunohistochemistry, the primary antibody solution consisted of 2% NDS, 2% bovine serum albumin, and 0.1% saponin. For all other antibodies, the primary antibody solution consisted of 2% NDS and 0.1% Triton X-100. Primary antibodies used included rat anti-MBP (Abcam, ab7349; 1:100), mouse anti-APC CC1 clone (Millipore, MABC200; 1:500), and rabbit anti-IBA1 (Wako Chemicals, 019-19741; 1:1,000). The tissue was then washed in PBS and incubated in secondary antibodies for […]. Secondary detection was performed with Alexa Fluor-conjugated secondary antibodies (1:500) for 1 h. Luxol fast blue staining was performed as previously described.
Samples were processed as previously described. In short, samples were osmicated, stained en bloc with uranyl acetate, and embedded in EMbed 812, an Epon-812 substitute (EMS). Sections (1 μm) were cut and stained with toluidine blue and visualized on a light microscope (Leica DM5500B). Additional thin sections were cut, carbon coated and imaged either on a JEOL JEM-1200-EX electron microscope or a T12 electron microscope (FEI).
EAE was induced by immunizing 10-week-old C57BL/6 female mice with […] injection of […] complete Freund's adjuvant emulsion (Hooke Laboratories). One hour after immunization, mice were given 100 ng of pertussis toxin by 100 μl intraperitoneal injection. A second dose of pertussis toxin was administered the next day. EAE onset was monitored daily and scored using a clinical scale where 0 represented no abnormality; 1, limp tail; 2, limp tail and hind limb weakness; 3, hind limb paralysis; 4, hind limb paralysis and forelimb weakness; and 5, moribund. […] Once mice reached peak of disease ˜day 15; clinical score=3) they were randomized into treatment groups, and drug or vehicle (DMSO in saline) was administered intraperitoneally daily for 10 days (n=12-16 mice per group). […] Experimenters were blinded to the identity of the treatments and animals were scored daily. Cumulative disease scores for each animal were calculated during the treatment period, and a two-tailed t-test compared drug—with vehicle-treated groups. The extent of recovery for each animal was calculated as the difference between the peak disease score and the score at the end of each experiment, and a two-tailed t-test was used to compare each treatment with vehicle. External validation of MOG35-55 EAE experiments (n=12 mice per group) was performed at Hooke Laboratories with experimenters blinded to the identity of the substances.

SMILES	induction of ERK1/2 phosphorylation in OPCs [1]	hit status / activity in the primary screen (MBP process length and intensity) [3]	further results
C[C@@H](c1ncncc1F)[C@](O)(Cn1cncn1)c1ccc(F)cc1F [voriconazole]	failed to induce changes in ERK1/2 phosphorylation	–	differentiation of OPCs into oligodendrocytes [2]: did not promote the differentiation of OPCs into oligodendrocytes
COc1cc2c(cc1OC)C(=O)C(CC1CCN(Cc3ccccc3)CC1)C2 (centres unmarked) [Donepezil]	–	identified in the primary screen	–
CN1[C@@H]2CC[C@H]1C[C@@H](OC(c1ccccc1)c1ccccc1)C2 [benztropine]	did not induce ERK1/2 phosphorylation	one of the top 22 drugs	areas of myelin disruption in the white matter (luxol fast blue, MBP immunohistochemistry) ([4]; cervical spinal cords): decrease in areas of myelin disruption in the white matter; functional improvement (disease score) ([4]; daily i.p. for 10 days from peak of disease, miconazole 10 mg/kg, clobetasol 2 mg/kg, benztropine 10 mg/kg): functional improvement, but to a lesser extent than miconazole and clobetasol
O=C(NOC[C@H](O)CO)c1ccc(F)c(F)c1Nc1ccc(I)cc1F [PD0325901]	–	–	block of miconazole-induced ERK1/2 phosphorylation ([1]; OPCs, inhibitor 1 μM for 1 h, then miconazole): blocked the ability of miconazole to induce ERK1/2 phosphorylation
